Laboratory results as given in patent publication US4720495A, “Benzo[ij]quinolizine-2-carboxylic acids useful for treating bacterial infection” (priority 1985, dated 1988).
Converted amounts (≈) assume the structure as drawn.

Experiments:
Enterobacter cloacae 963 = assay: minimal inhibitory concentration, in vitro antibacterial activity; format: cell-based; details: 37° C., 20 hours
Description: (§1) The in vitro antibacterial activities of typical examples of the present compounds [I] were evaluated in terms of the minimal inhibitory concentration defined as the lowest concentration of the compound preventing the bacterial growth. The Gram-positive bacteria used as test microorganisms included Bacillus subtilis, Staphylococcus aureus and Streptococcus faecalis, and the Gram-negative bacteria used as test microorganisms included Escherichia coli, Enterobacter cloacae, Klebsiella pneumoniae, Proteus vulgaris, Pseudomonas aeruginosa, Serratia marcescens and Salmonella enteritidis. The minimal inhibitory concentration (cultured at 37° C. for 20 hours) was determined according to the standard method prescribed by the Japan Society of Chemotherapy (CHEMOTHERAPY, Vol. 29, No. 1, p. 76, 1981). The following compounds were used as typical examples of the present compounds [I]. At the end of the chemical name of each compound, its tentative designation is given in Parentheses.
(§2) For purposes of comparison, the in vitro antibacterial activities of ofloxacin, OPC-7241 and compound α were evaluated according to the same method as described above and the test results thus obtained are also shown in Table 1.

[1] = tested on: Streptococcus faecalis AHU 1085; assay: as above; format: cell-based; details: Enterococcus faecalis, AHU1085, 37° C., 20 hours
Description: as §1, §2

Escherichia coli CI-304 = assay: as above; format: cell-based; details: CI304, 37° C., 20 hours
Description: as §1, §2

[2] = tested on: Bacillus subtilis ATCC 6633; assay: as above; format: cell-based; details: ATCC6633, 37° C., 20 hours
Description: as §1, §2

[3] = tested on: Salmonella enteritidis G14; assay: as above; format: cell-based; details: Salmonella enterica, 37° C., 20 hours
Description: as §1, §2

[4] = tested on: Staphylococcus aureus FDA 209P JC-1; assay: as above; format: cell-based; details: FDA209P, 37° C., 20 hours
Description: as §1, §2

[5] = tested on: Serratia marcescens IAM 1184; assay: as above; format: cell-based; details: IAM1184, 37° C., 20 hours
Description: as §1, §2

[6] = tested on: Proteus vulgaris ATCC 13315; assay: as above; format: cell-based; details: ATCC13315, 37° C., 20 hours
Description: as §1, §2

[7] = tested on: Escherichia coli NIHJ JC-2; assay: as above; format: cell-based; details: NIHJJC2, 37° C., 20 hours
Description: as §1, §2

[8] = tested on: Pseudomonas aeruginosa NCTC 10490; assay: as above; format: cell-based; details: NCTC10490, 37° C., 20 hours
Description: as §1, §2

[9] = tested on: Klebsiella pneumoniae PCI 602; assay: as above; format: cell-based; details: PCI602, 37° C., 20 hours
Description: as §1, §2

[10] = enteral absorbability, serum concentration after oral administration to mice; format: in vivo; details: mouse, 50 mg/kg orally, fasted male ICR mice; for concentration at 0.5 h: 30 min.
Description: Using male ICR mice fasted overnight (weighing 20±1 g), the enteral absorbability of some typical examples of the present compounds [I] was tested. This test was carried out by administering 50 mg/kg of each test compound orally to mice and determining its serum concentration 30 minutes, 1 hour, 2 hours and 4 hours after administration. Five mice were used for each test point. At each test point, whole blood was collected from the mice by cardiac puncture and used to prepare serum samples. Concentrations of the test compounds in serum samples were determined by the paper disc method using Escherichia coli CI-304 as the test microorganism.
For purposes of comparison, the enteral absorbability of ofloxacin and OPC-7241 was tested in the same manner as described above and the results thus obtained are also shown in Table 2.

Compound	MIC (Enterobacter cloacae 963)	MIC [1]	MIC (Escherichia coli CI-304)	MIC [2]	MIC [3]	MIC [4]	MIC [5]	MIC [6]	MIC [7]	MIC [8]	MIC [9]	concentration at 0.5 h [10]	concentration at 1 h [10]	concentration at 2 h [10]	concentration at 4 h [10]
CC1CC(=O)c2c(N3CCNCC3)c(F)cc3c(=O)c(C(=O)O)cn1c23 (centres unmarked) [Compound 1, 9-Fluoro-5-methyl-8-(1-piperazinyl)-6,7-dihydro-1,7-dioxo-1H,5H-benzo[ij]quinolizine-2-carboxylic acid]	0.78 µg/mL (≈ 2.17 µM)	1.56 µg/mL (≈ 4.34 µM)	0.1 µg/mL (≈ 0.278 µM)	0.39 µg/mL (≈ 1.09 µM)	0.39 µg/mL (≈ 1.09 µM)	0.2 µg/mL (≈ 0.557 µM)	3.13 µg/mL (≈ 8.71 µM)	0.2 µg/mL (≈ 0.557 µM)	0.39 µg/mL (≈ 1.09 µM)	1.56 µg/mL (≈ 4.34 µM)	0.1 µg/mL (≈ 0.278 µM)				
CC1CC(=O)c2c(N3CCNCC3)c(Cl)cc3c(=O)c(C(=O)O)cn1c23 (centres unmarked) [Compound 2, 9-Chloro-5-methyl-8-(1-piperazinyl)-6,7-dihydro-1,7-dioxo-1H,5H-benzo[ij]quinolizine-2-carboxylic acid]	0.78 µg/mL (≈ 2.08 µM)		0.2 µg/mL (≈ 0.532 µM)	0.39 µg/mL (≈ 1.04 µM)		0.39 µg/mL (≈ 1.04 µM)		0.1 µg/mL (≈ 0.266 µM)	0.39 µg/mL (≈ 1.04 µM)	0.78 µg/mL (≈ 2.08 µM)	0.1 µg/mL (≈ 0.266 µM)				
CC1CN(c2c(Cl)cc3c(=O)c(C(=O)O)cn4c3c2C(=O)CC4C)CC(C)N1C (centres unmarked) [Compound 18, 9-Chloro-5-methyl-8-(3,4,5-trimethyl-1-piperazinyl) -6,7-dihydro-1,7-dioxo-1H, 5H-benzo[ij]quinolizine-2-carboxylic acid]	0.78 µg/mL (≈ 1.87 µM)		0.2 µg/mL (≈ 0.479 µM)						0.78 µg/mL (≈ 1.87 µM)		0.1 µg/mL (≈ 0.239 µM)				
CC1C=Cc2c(N3CCNCC3)c(F)cc3c(=O)c(C(=O)O)cn1c23 (centres unmarked) [Compound 20, 9-Fluoro-5-methyl-8-(1-piperazinyl) -1-oxo-1H, 5H-benzo[ij]quinolizine-2-carboxylic acid]	0.78 µg/mL (≈ 2.27 µM)		0.2 µg/mL (≈ 0.582 µM)		0.78 µg/mL (≈ 2.27 µM)	0.78 µg/mL (≈ 2.27 µM)	3.13 µg/mL (≈ 9.12 µM)	0.2 µg/mL (≈ 0.582 µM)	0.39 µg/mL (≈ 1.14 µM)	3.13 µg/mL (≈ 9.12 µM)	0.2 µg/mL (≈ 0.582 µM)				
CC1C=Cc2c(N3CCNCC3)c(Cl)cc3c(=O)c(C(=O)O)cn1c23 (centres unmarked) [Compound 22, 9-Chloro-5-methyl-8-(1-piperazinyl) -1-oxo-1H, 5H-benzo[ij]quinolizine-2-carboxylic acid]	0.2 µg/mL (≈ 0.556 µM)	0.78 µg/mL (≈ 2.17 µM)	0.1 µg/mL (≈ 0.278 µM)	0.1 µg/mL (≈ 0.278 µM)	0.78 µg/mL (≈ 2.17 µM)	0.2 µg/mL (≈ 0.556 µM)	0.78 µg/mL (≈ 2.17 µM)	0.1 µg/mL (≈ 0.278 µM)	0.2 µg/mL (≈ 0.556 µM)	0.78 µg/mL (≈ 2.17 µM)	0.1 µg/mL (≈ 0.278 µM)				
CC1CN(c2c(F)cc3c(=O)c(C(=O)O)cn4c3c2C=CC4C)CCN1C (centres unmarked) [Compound 25, 9-Fluoro-5-methyl-8-(3,4-dimethyl-1-piperazinyl) -1-oxo-1H, 5H-benzo[ij]quinolizine-2-carboxylic acid]	0.2 µg/mL (≈ 0.538 µM)		0.2 µg/mL (≈ 0.538 µM)	0.2 µg/mL (≈ 0.538 µM)	1.56 µg/mL (≈ 4.2 µM)	0.2 µg/mL (≈ 0.538 µM)	1.56 µg/mL (≈ 4.2 µM)	0.1 µg/mL (≈ 0.269 µM)	0.39 µg/mL (≈ 1.05 µM)	1.56 µg/mL (≈ 4.2 µM)	0.1 µg/mL (≈ 0.269 µM)	15500 ng/mL	14900 ng/mL	9300 ng/mL	5400 ng/mL
CC1C=Cc2c(N3CCNC(C)(C)C3)c(F)cc3c(=O)c(C(=O)O)cn1c23 (centres unmarked) [Compound 26, 9-Fluoro-5-methyl-8-(3,3-dimethyl-1-piperazinyl) -1-oxo-1H, 5H-benzo[ij]quinolizine-2-carboxylic acid]	0.39 µg/mL (≈ 1.05 µM)		0.2 µg/mL (≈ 0.538 µM)		1.56 µg/mL (≈ 4.2 µM)			0.1 µg/mL (≈ 0.269 µM)	0.39 µg/mL (≈ 1.05 µM)	1.56 µg/mL (≈ 4.2 µM)	0.2 µg/mL (≈ 0.538 µM)				
CC1CN(c2c(F)cc3c(=O)c(C(=O)O)cn4c3c2C=CC4C)CC(C)N1C (centres unmarked) [Compound 27, 9-Fluoro-5-methyl-8-(3,4,5-trimethyl-1-piperazinyl) -1-oxo-1H, 5H-benzo[ij]quinolizine-2-carboxylic acid]	0.39 µg/mL (≈ 1.01 µM)		0.2 µg/mL (≈ 0.519 µM)		0.78 µg/mL (≈ 2.02 µM)	0.78 µg/mL (≈ 2.02 µM)	1.56 µg/mL (≈ 4.05 µM)	0.1 µg/mL (≈ 0.259 µM)			0.2 µg/mL (≈ 0.519 µM)				
CCC1C=Cc2c(N3CCNC(C)C3)c(F)cc3c(=O)c(C(=O)O)cn1c23 (centres unmarked) [Compound 32, 9-Fluoro-5-ethyl-8-(3-methyl-1-piperazinyl) -1-oxo-1H, 5H-benzo[ij]quinolizine-2-carboxylic acid]	0.78 µg/mL (≈ 2.1 µM)		0.2 µg/mL (≈ 0.538 µM)						0.39 µg/mL (≈ 1.05 µM)		0.2 µg/mL (≈ 0.538 µM)				

Now from value to molecule:

MIC (Enterobacter cloacae 963)	MIC [1]	MIC (Escherichia coli CI-304)	MIC [2]	MIC [3]	MIC [4]	MIC [5]	MIC [6]	MIC [7]	MIC [8]	MIC [9]	concentration at 0.5 h [10]	concentration at 1 h [10]	concentration at 2 h [10]	concentration at 4 h [10]	Compound
0.78 µg/mL (≈ 2.01 µM)		0.39 µg/mL (≈ 1.01 µM)	0.39 µg/mL (≈ 1.01 µM)					0.78 µg/mL (≈ 2.01 µM)		0.2 µg/mL (≈ 0.516 µM)					CCC1CC(=O)c2c(N3CCN(C)CC3)c(F)cc3c(=O)c(C(=O)O)cn1c23 (centres unmarked) [Compound 6, 9-Fluoro-5-ethyl-8-(4-methyl-1-piperazinyl) -6,7-dihydro-1,7-dioxo-1H, 5H-benzo[ij]quinolizine-2-carboxylic acid]
0.2 µg/mL (≈ 0.513 µM)	1.56 µg/mL (≈ 4 µM)	0.1 µg/mL (≈ 0.257 µM)	0.1 µg/mL (≈ 0.257 µM)	0.78 µg/mL (≈ 2 µM)	0.39 µg/mL (≈ 1 µM)	3.13 µg/mL (≈ 8.03 µM)	0.1 µg/mL (≈ 0.257 µM)	0.1 µg/mL (≈ 0.257 µM)	0.78 µg/mL (≈ 2 µM)	0.1 µg/mL (≈ 0.257 µM)					CC1CC(=O)c2c(N3CCN(C)CC3)c(Cl)cc3c(=O)c(C(=O)O)cn1c23 (centres unmarked) [Compound 7, 9-Chloro-5-methyl-8-(4-methyl-1-piperazinyl)-6,7-dihydro-1,7-dioxo-1H, 5H-benzo[ij]quinolizine-2-carboxylic acid]
0.78 µg/mL (≈ 1.94 µM)	3.13 µg/mL (≈ 7.8 µM)	0.2 µg/mL (≈ 0.498 µM)	0.39 µg/mL (≈ 0.972 µM)		0.78 µg/mL (≈ 1.94 µM)			0.39 µg/mL (≈ 0.972 µM)	1.56 µg/mL (≈ 3.89 µM)	0.1 µg/mL (≈ 0.249 µM)					CCCN1CCN(c2c(F)cc3c(=O)c(C(=O)O)cn4c3c2C(=O)CC4C)CC1 (centres unmarked) [Compound 8, 9-Fluoro-5-methyl-8-(4-n-propyl-1-piperazinyl)-6,7-dihydro-1,7-dioxo-1H, 5H-benzo[ij]quinolizine-2-carboxylic acid]
		0.39 µg/mL (≈ 0.967 µM)								0.1 µg/mL (≈ 0.248 µM)					CC1CC(=O)c2c(N3CCN(CCO)CC3)c(F)cc3c(=O)c(C(=O)O)cn1c23 (centres unmarked) [Compound 12, 9-Fluoro-5-methyl-8-[4-(2-hydroxyethyl) -1-piperazinyl]-6,7-dihydro-1,7-dioxo-1H, 5H-benzo[ij]quinolizine-2-carboxylic acid]
0.39 µg/mL (≈ 1.01 µM)	3.13 µg/mL (≈ 8.08 µM)	0.1 µg/mL (≈ 0.258 µM)	0.39 µg/mL (≈ 1.01 µM)	0.78 µg/mL (≈ 2.01 µM)	0.39 µg/mL (≈ 1.01 µM)			0.39 µg/mL (≈ 1.01 µM)	3.13 µg/mL (≈ 8.08 µM)	0.1 µg/mL (≈ 0.258 µM)	15000 ng/mL	11700 ng/mL	6700 ng/mL	4300 ng/mL	CC1CC(=O)c2c(N3CCNC(C)(C)C3)c(F)cc3c(=O)c(C(=O)O)cn1c23 (centres unmarked) [Compound 15, 9-Fluoro-5-methyl-8-(3,3-dimethyl-1-piperazinyl) -6,7-dihydro-1,7-dioxo-1H, 5H-benzo[ij]quinolizine-2-carboxylic acid]
0.78 µg/mL (≈ 2.18 µM)	1.56 µg/mL (≈ 4.37 µM)	0.2 µg/mL (≈ 0.56 µM)	0.1 µg/mL (≈ 0.28 µM)	0.78 µg/mL (≈ 2.18 µM)	0.39 µg/mL (≈ 1.09 µM)	1.56 µg/mL (≈ 4.37 µM)	0.1 µg/mL (≈ 0.28 µM)	0.39 µg/mL (≈ 1.09 µM)	0.78 µg/mL (≈ 2.18 µM)	0.1 µg/mL (≈ 0.28 µM)					CC1C=Cc2c(N3CCN(C)CC3)c(F)cc3c(=O)c(C(=O)O)cn1c23 (centres unmarked) [Compound 19, 9-Fluoro-5-methyl-8-(4-methyl-1-piperazinyl) -1-oxo-1H, 5H-benzo[ij]quinolizine-2-carboxylic acid]
